Measured values from patent US6365585B1, “Phosphodiesterase IV-inhibiting diazepinoindoles” (Warner-Lambert Company, priority 1998, dated 2002).

Tests used:
[1] = Metabolism in vitro of MPTDI, human hepatic microsomes (HPLC-MS profile); assay type: in vitro ADME; settings: incubation of MPTDI with human hepatic microsomes
Method: (§1) The profile and the identification of the metabolites of MPTDI were obtained after incubation of the product with human hepatic microsomes. The results were compared with those obtained on rat hepatic microsomes. The metabolic profiles obtained by HPLC coupled to a mass spectrometer in these two species are represented in FIG. 1. In some cases, the mass spectra obtained were compared with those of reference substances synthesized by the chemical route. It is deduced therefrom that the profiles obtained on human and rat microsomes are similar: Table 1 collates the measured proportions of the metabolites for these two species.

[2] = Metabolism in vitro of MPTDI, rat hepatic microsomes (HPLC-MS profile); assay type: in vitro ADME; settings: incubation of MPTDI with rat hepatic microsomes
Method: as §1

| Compound | Proportions (%) of the metabolites obtained on human hepatic microsomes [1] | Proportions (%) of the metabolites obtained on rat hepatic microsomes [2] | melting point |
| --- | --- | --- | --- |
| Cc1cc2c3c(c1)C(c1ccccc1)=N[C@@H](NC(=O)c1ccncc1)C(=O)N3CC2 [MPTDI, (3R)-N-(9-methyl-4-oxo-1-phenyl-3,4,6,7-tetrahydro[1,4]diazepino[6,7,1-hi]indol-3-yl)isonicotinamide, reference compound] | 79% | 38.2% | – |
| O=C(NC1N=C(c2ccccc2)c2cc(CO)cc3c2N(CC3)C1=O)c1ccncc1 (centres unmarked) [OH on 9-CH3, N-(9-hydroxymethyl-4-oxo-1-phenyl-3,4,6,7-tetrahydro[1,4]diazepino[6,7,1-hi]indol-3-yl)isonicotinamide] | 4.2% | 24.3% | 260 °C |
